Test results published in patent US20060069084A1, “Methods of inhibiting kinases” (priority 2001, published 2006).

Legend:
[1] = molecular target: T1, JAK1 (Homo sapiens, UniProt P23458); test: JAK1 kinase domain capture-based ELISA kinase assay; assay type: biochemical; conditions: Table 3; inhibit 50% of activity at 50 μM
T1 construct: The kinase domain of humanJAK1 was amplified from U937mRNA; His tag (from pFastBac HTb vector; nickel chelate purification) (N); made in house; host or cells: baculovirus; virus made in Sf9, large-scale expression in High Five insect cells
How it was run: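 His-tagged human JAK1 kinase domain was expressed via baculovirus in High Five insect cells and purified on nickel chelate resin. Phosphotyrosine was quantified by ELISA with peroxidase-linked PY20 after capture on avidin plates.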

[2] = molecular target: T2, JAK3 (Homo sapiens, UniProt P52333); test: JAK3 kinase domain capture-based ELISA kinase assay; assay type: biochemical; conditions: Table 3; inhibit 50% of activity at 50 μM
T2 construct: The kinase domain of humanJAK3 was amplified from U937mRNA; His tag (from pFastBac HTb vector; nickel chelate purification) (N); made in house; host or cells: baculovirus; virus made in Sf9, large-scale expression in High Five insect cells
How it was run: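 The human JAK3 kinase domain was His-tagged, baculovirus-expressed in High Five cells and nickel-affinity purified. Tyrosine phosphorylation was quantified on avidin-coated ELISA plates with peroxidase-linked anti-phosphotyrosine antibody PY20.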

[3] = molecular target: T3, TYK2 (Homo sapiens, UniProt P29597); test: TYK2 kinase domain capture-based ELISA kinase assay; assay type: biochemical; conditions: Table 3; inhibit 50% of activity at 50 μM
T3 construct: The kinase domain of humanTYK2 was amplified from A549 mRNA; His tag (from pBlueBacHis2A vector; nickel chelate purification) (N); made in house; host or cells: baculovirus; virus made in Sf9, large-scale expression in High Five insect cells
T3 sequence (P29597 897-1176 limits assumed): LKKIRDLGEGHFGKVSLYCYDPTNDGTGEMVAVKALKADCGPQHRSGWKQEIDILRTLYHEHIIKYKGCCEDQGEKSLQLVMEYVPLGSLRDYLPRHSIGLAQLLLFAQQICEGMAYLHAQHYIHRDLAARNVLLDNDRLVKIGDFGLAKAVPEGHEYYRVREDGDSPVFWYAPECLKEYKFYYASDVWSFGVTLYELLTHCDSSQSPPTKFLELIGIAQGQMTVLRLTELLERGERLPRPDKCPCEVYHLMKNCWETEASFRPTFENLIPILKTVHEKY
How it was run: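 His-tagged human TYK2 kinase domain expressed in baculovirus-infected insect cells and Ni-affinity purified. Biotinylated peptide substrate (5 μM final); phosphotyrosine captured on avidin plate and detected by peroxidase-linked PY20 antibody ELISA.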

[4] = molecular target: T4, JAK2 (Homo sapiens, UniProt O60674); test: JAK2 kinase domain capture-based ELISA kinase assay; assay type: biochemical; conditions: Table 3; inhibit 50% of activity at 50 μM
T4 construct: The kinase domain of humanJAK2 was amplified from U937mRNA; His tag (from pFastBac HTc vector; nickel chelate purification) (N); made in house; host or cells: baculovirus; virus made in Sf9, large-scale expression in High Five insect cells
How it was run: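 His-tagged human JAK2 kinase domain was baculovirus-expressed in High Five insect cells and nickel-purified. Phosphotyrosine was captured on avidin plates and detected by ELISA with peroxidase-linked PY20.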

[5] = test system: T-cell activation; test: T-cell activation cellular assay (MTT); assay type: cell-based; conditions: Table 4, 40 hr incubation
Procedure: (§1) Cellular assays were performed as follows:
(§2) Cell suspensions were prepared by harvesting cells from culture. Cell used in this test should be in later log phase growth and high viability. Cells were diluted in correct growth medium to 1.1× final concentration (from 50000 cell/ml to 200,000 cell/ml, depending on cell line). 90 μL was added to samples, diluted in PBS to 10× final concentration in flat-bottom 96-well plates (10 μL). After incubation for 40 hr in 37° C. 5% CO2 incubator, MTT 5 mg/ml (in PBS, filter sterile) 20 μl per well was added. The plates were returned to incubator for another 6 hours. Lysis Buffer (10% SDS, 0.01N HCl) 100 μl per well was added and the plate put back in incubator overnight. The plate was then read at 590 nm.

[6] = test system: Jurkat; test: Jurkat cellular growth assay (MTT); assay type: cell-based; conditions: Table 4, inhibit 50% of cellular growth, 40 hr incubation
Procedure: as §1, §2

[7] = test system: TSU; test: TSU cellular growth assay (MTT); assay type: cell-based; conditions: Table 4, inhibit 50% of cellular growth, 40 hr incubation
Procedure: as §1, §2

T1 sequence (P23458 875-1153 limits assumed): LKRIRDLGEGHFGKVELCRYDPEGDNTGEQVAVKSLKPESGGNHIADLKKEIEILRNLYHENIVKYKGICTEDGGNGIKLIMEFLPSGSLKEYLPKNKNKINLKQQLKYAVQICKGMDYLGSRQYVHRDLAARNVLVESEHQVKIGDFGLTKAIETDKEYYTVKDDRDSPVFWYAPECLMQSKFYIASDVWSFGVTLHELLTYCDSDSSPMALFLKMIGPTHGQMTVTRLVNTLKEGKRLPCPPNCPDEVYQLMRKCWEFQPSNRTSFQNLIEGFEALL
T4 sequence (O60674 849-1124 limits assumed): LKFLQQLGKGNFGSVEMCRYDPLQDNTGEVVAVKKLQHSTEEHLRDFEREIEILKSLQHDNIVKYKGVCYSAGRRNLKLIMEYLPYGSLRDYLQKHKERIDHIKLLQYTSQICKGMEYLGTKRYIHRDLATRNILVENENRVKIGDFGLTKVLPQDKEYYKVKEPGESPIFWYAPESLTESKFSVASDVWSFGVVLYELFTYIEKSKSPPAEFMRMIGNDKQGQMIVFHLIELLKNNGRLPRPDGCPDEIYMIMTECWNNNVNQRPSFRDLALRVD
T2 sequence (P52333 822-1111 limits assumed): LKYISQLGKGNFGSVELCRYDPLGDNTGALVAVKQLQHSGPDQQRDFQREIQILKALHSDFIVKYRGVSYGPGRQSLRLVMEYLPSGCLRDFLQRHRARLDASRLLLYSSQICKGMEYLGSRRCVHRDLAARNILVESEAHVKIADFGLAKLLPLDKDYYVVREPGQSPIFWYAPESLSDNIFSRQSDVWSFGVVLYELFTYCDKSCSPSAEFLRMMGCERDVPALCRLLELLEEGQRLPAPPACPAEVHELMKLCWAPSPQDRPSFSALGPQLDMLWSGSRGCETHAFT

SMILES	IC50 [1] [µM]	IC50 [2] [µM]	IC50 [3] [µM]	IC50 [4] [µM]	IC50 ([6]; Homo sapiens, Jurkat, 40 h) [µM]	IC50 [6] [µM]	IC50 ([5]; T-cell, 40 h) [µM]	IC50 [7] [µM]	IC50 [5] [µM]
COc1cc(-c2cncc(NCc3ccccc3)n2)cc(OC)c1OC [CYT25209]	< 50	< 50	< 50	< 50					
COc1cc(-c2cncc(NCCO)n2)cc(OC)c1OC [CYT28608]	< 50	< 50	< 50	< 50					
C[C@@H](Nc1cncc(-c2cccc(N)c2)n1)c1ccccc1 [CYT31106]	< 50	< 50	< 50	< 50					
CC(=O)Nc1cccc(-c2cncc(N[C@H](C)c3ccccc3)n2)c1 [CYT32102]	< 50	< 50	< 50	< 50					
COc1cc(-c2cncc(N[C@H](C)c3ccccc3)n2)cc(OC)c1OC [CYT32107]	< 50	< 50	< 50	< 50					
Oc1ccc(-c2cncc(N3CCN(Cc4ccccn4)CC3)n2)cc1 [CYT32602]	< 50	< 50	< 50	< 50					
COc1ccc(N2CCN(c3cncc(-c4ccc(CC(N)C(=O)O)cc4)n3)CC2)cc1OC (centres unmarked) [CYT34205]	< 50	< 50	< 50	< 50					
COc1cc(-c2cncc(N[C@@H](C)c3ccccc3)n2)cc(OC)c1OC [drawing 55]						20		10	10
CC(=O)Nc1cccc(-c2cncc(NCc3cccc(Cl)c3)n2)c1 [drawing 60]					40		30	5	

Continued, in another order:

IC50 [1] [µM]	IC50 [2] [µM]	IC50 [3] [µM]	IC50 [4] [µM]	IC50 ([6]; Homo sapiens, Jurkat, 40 h) [µM]	IC50 [6] [µM]	SMILES	IC50 ([5]; T-cell, 40 h) [µM]	IC50 [7] [µM]	IC50 [5] [µM]
< 50	< 50	< 50	< 50			c1ccc(CNc2cncc(-c3cccnc3)n2)cc1 [CYT24803]			
< 50	< 50	< 50	< 50			OCc1ccccc1-c1cncc(NCc2ccccc2)n1 [CYT25210]			
< 50	< 50	< 50	< 50			COc1cc(-c2cncc(Nc3ccc(C#N)cc3)n2)cc(OC)c1OC [CYT32302]			
< 50	< 50	< 50	< 50			CN(C)CCNC(=O)c1cccc(-c2cncc(N3CCN(c4ccccc4C#N)CC3)n2)c1 [CYT34503]			
				50		COc1cncc(-c2cncc(NCc3ccc(F)cc3)n2)c1 [drawing 53]	30	50	
				50		COc1cncc(-c2cncc(N[C@@H](C)c3ccccc3)n2)c1 [drawing 54]	15	20	
				20		COc1cc(-c2cncc(NCc3ccccc3)n2)cc(OC)c1OC [drawing 56]	15	10	
				35		COc1cc(-c2cncc(N[C@@H](C)c3ccccc3)n2)cc(OC)c1OC [drawing 57]	12	10	
				20		C[C@H](Nc1cncc(-c2cccc(CO)c2)n1)c1ccccc1 [drawing 58]	20	15	
				40		COc1cncc(-c2cncc(NCC(C)(C)CO)n2)c1 [drawing 59]	15	40	
